Experimental data taken from patent US20170007561A1, “CONTEMPORANEOUS, HETEROGENEOUSLY-ORIENTED, MULTI-TARGETED THERAPEUTIC MODIFICATION AND/OR MODULATION OF DISEASE BY ADMINISTRATION OF SULFUR-CONTAINING, AMINO ACID-SPECIFIC SMALL MOLECULES” (BioNumerik Pharmaceuticals, Inc., priority 2014, published 2017).
Values joined by “and” are separate entries in the source; they are usually repeats but may differ in a detail not shown here. Identical values can stand only once. “Also recorded” adds a separate entry of the source. Like-named read-outs stand apart in the source and are kept apart here.

Tests used:
[1] = target: T1, recombinant human farnesyltransferase (Homo sapiens, UniProt P49354+P49356); test: Farnesyltransferase Dansyl-GCVLS fluorescence assay; type: biochemical
T1 construct: purchased Abcam
T1 sequence (P49356 whole entry, one chain of several): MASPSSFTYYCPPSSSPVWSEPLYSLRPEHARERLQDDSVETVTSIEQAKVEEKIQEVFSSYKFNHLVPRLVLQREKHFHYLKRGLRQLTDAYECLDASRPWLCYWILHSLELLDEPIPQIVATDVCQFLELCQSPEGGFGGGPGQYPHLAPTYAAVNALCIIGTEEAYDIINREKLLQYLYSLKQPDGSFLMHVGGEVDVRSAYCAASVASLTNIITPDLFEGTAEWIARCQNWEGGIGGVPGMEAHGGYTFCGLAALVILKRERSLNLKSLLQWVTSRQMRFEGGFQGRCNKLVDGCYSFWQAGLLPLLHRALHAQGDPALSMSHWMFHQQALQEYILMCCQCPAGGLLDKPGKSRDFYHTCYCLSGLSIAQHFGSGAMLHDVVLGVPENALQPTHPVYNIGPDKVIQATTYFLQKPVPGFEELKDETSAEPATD
Experimental: Tavocept-inhibited human farnesyltransferase-mediated transfer of farnesylpyrophosphate to the cysteine residue in a danyslated peptide substrate of sequence glycine-cysteine-valine-leucine-serine (designated—Dansyl-GCVLS) in vitro. See, FIG. 79. The assay reactions contained 25 nM recombinant human farnesyltransferase (Abcam), 10 μM farnesylpyrophosphate (SigmaAldrich), 3 μM Dansyl-GCVLS (NeoBioScience) in Tris buffer (50 mM, pH 7.5) containing 5 mM MgCl2, 10 μM ZnCl2, and 0.2% octyl-β-D-glucopyranoside. Total assay volumes were 50 μL and the reactions were initiated by the addition of FTase (5 μL of 250 nM stock was added to 45 μL of assay components listed above). The excitation wavelength was 340 nm (a 340 nm filter with 25 nm bandpass) and the emission wavelength was […] (505 nm filter with 20 nm bandpass) and the assay temperature was 25° C. Progress curves of the transfer of the farnesylpyrophosphate to the Dansyl-GCVLS substrate are shown in FIG. 79, Panel A and relative rates of the progress curve were determined and are shown in FIG. 79, Panel B.

TrxR/Trx system = target: T2, TrxR/Trx system (Homo sapiens, UniProt P10599); test: TrxR/Trx NADPH oxidation assay; type: biochemical
T2 construct: purchased Sigma (Trx); American Diagnostica (bovine TrxR)
T2 sequence (P10599 1-105): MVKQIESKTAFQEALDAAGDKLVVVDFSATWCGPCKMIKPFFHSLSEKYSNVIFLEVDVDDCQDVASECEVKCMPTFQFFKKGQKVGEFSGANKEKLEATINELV
Source text: (Note: error bars are small and may be obscured by the symbols). […] (Note: error bars were omitted but assays were run in quadruplicate with typical errors of 5-8% between individual replicates). […] Panel D: Initial velocity reaction rates corresponding to progress curves shown in Panel C. With time, Trx-mesna and Trx-GSH are converted back to apo-Trx by Trx reductase (see also, FIG. 69, Panel E).

[2] = cited from earlier work
bovine TrxR = target: T3, bovine TrxR (Bos taurus, UniProt O62768); test: TrxR NADPH oxidation assay without Trx (Reaction A); type: biochemical
T3 construct: purchased American Diagnostica
T3 sequence (O62768 1-499): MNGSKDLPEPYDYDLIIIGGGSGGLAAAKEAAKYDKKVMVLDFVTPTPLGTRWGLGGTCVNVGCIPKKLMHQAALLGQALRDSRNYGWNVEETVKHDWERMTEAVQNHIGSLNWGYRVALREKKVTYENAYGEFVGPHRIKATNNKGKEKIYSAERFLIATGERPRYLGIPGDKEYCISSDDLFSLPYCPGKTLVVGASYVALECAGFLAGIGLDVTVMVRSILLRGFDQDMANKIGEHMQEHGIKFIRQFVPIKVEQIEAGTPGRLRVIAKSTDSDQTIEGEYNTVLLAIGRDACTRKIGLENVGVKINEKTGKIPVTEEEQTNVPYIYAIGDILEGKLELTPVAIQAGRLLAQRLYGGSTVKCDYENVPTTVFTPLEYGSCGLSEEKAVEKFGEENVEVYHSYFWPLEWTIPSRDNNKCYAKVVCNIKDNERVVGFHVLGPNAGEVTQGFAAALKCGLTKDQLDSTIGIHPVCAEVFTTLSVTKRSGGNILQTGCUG

[3] = target: T4, Anaplastic Lymphoma Kinase (ALK) (Homo sapiens, UniProt Q9UM73); test: ALK kinase activity (summary Table 27); type: biochemical
T4 construct: illustrates the kinase domain of ALK (residues 1058-1623) which was used in these experiments; 6xHis (N); purchased Millipore lot 32944U-H (catalogue number not given); host or cells: baculovirus / Sf21
T4 sequence (Q9UM73 1058-1620 limits assumed): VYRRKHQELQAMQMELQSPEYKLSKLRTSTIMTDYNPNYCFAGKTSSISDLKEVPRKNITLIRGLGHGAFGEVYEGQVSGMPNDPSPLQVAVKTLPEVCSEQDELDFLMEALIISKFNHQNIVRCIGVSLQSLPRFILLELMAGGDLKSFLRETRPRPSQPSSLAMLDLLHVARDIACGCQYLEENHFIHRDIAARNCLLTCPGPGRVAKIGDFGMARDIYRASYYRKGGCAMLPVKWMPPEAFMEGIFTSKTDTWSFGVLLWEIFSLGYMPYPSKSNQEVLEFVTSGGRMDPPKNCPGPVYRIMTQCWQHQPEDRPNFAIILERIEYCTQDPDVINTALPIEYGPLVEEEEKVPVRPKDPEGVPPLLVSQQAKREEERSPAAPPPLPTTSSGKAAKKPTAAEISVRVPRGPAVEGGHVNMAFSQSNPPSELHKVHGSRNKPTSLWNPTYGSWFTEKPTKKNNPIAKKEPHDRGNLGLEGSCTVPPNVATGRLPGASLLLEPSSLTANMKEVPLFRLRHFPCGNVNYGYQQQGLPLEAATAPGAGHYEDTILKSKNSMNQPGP

FTase = target: T5, FTase (Homo sapiens, UniProt P49354+P49356); test: FTase-mediated farnesylation of Dansyl-GCVLS peptide; type: biochemical
T5 construct: purchased Abcam
T5 sequence (P49356 whole entry, one chain of several): as the sequence (P49356 whole entry, one chain of several) above
Source text: Panel A: Progress curve showing FTase-mediated farnesylation of Dansyl-GCVLS peptide. Panel B: Relative rates from reactions shown in Panel A.

[4] = target: human peroxiredoxin 4 (PRX4) (Homo sapiens, UniProt Q13162); test: X-ray crystallography and Mass Spectrometry of Prx 4 with Tavocept-derived mesna; details: 40 mM Tavocept; MS and X-ray
Sequence of human peroxiredoxin 4 (PRX4) (Q13162 79-271 limits assumed): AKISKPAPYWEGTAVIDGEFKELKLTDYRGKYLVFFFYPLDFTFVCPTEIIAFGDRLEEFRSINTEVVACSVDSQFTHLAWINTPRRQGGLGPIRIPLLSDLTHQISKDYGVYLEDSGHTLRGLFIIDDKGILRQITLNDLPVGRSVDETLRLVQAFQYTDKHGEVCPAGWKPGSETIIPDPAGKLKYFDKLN

γ-Glutamyltranspeptidase = γ-Glutamyltranspeptidase (Homo sapiens, UniProt P19440); test: γ-Glutamyltranspeptidase activity (summary Table 27); type: biochemical
Sequence of γ-Glutamyltranspeptidase (P19440 whole entry): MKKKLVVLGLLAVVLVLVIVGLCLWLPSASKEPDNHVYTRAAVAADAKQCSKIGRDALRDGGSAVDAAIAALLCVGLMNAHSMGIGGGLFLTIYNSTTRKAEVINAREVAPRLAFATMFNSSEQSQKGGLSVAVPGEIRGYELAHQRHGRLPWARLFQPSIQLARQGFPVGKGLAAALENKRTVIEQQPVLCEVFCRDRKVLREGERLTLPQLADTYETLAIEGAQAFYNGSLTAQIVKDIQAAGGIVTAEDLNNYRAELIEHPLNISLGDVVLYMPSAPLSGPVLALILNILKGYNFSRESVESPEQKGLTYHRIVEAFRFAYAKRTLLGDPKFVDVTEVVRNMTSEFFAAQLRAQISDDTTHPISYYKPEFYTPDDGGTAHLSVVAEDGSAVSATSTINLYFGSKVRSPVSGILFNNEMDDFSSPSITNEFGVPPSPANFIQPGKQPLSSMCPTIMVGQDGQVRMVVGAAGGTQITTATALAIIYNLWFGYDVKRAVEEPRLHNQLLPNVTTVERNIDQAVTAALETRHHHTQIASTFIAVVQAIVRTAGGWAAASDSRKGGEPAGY

[5] = target: T6, human glutaredoxin (Grx1) (Homo sapiens, UniProt P35754); test: X-ray crystallography of Tavocept-derived mesna adduct on Grx; type: binding; details: Tavocept 40 mM, 4° C. overnight
T6 construct: 6xHis (TEV-cleavable) (N, cleaved yes); made in house; host or cells: E. coli BL21 (RIPL)
T6 sequence (P35754 whole entry): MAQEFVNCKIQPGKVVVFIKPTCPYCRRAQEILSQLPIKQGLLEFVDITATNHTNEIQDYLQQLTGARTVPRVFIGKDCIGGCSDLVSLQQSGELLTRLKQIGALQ
Source text: Diffraction data were collected at the Advanced Light Source (ALS) (Berkeley, Calif.). […] Data was processed using the program package MosFlm as part of the ccp4 program package.
Data was indexed, integrated, scaled and merged using the program Mosflm. […] The solution was consistent with one molecule in the crystal asymmetric unit. […] The structure solution is supported by contiguous electron density for the entire chain trace of each molecule, landmark side chain density features matching the amino acid sequence including cysteines, absence of phi-psi violations and final R/Rfree values in the normal range. […] Residues Gln39 and Glu55 have missing side-chain atoms in the final structures (side chain atoms CD, CG, OE1, NE2 and CD, OE1, OE2, respectively).

[6] = target: T7, Mesenchymal Epithelial Transition (MET) Factor Kinase (Homo sapiens, UniProt P08581); test: MET kinase activity (summary Table 27); type: biochemical
T7 construct: the kinase domain of MET (residues 956-end) was used in these experiments; GST (N); purchased SignalChem M52-18G-10; host or cells: Sf9
T7 sequence (P08581 956-1390 limits assumed): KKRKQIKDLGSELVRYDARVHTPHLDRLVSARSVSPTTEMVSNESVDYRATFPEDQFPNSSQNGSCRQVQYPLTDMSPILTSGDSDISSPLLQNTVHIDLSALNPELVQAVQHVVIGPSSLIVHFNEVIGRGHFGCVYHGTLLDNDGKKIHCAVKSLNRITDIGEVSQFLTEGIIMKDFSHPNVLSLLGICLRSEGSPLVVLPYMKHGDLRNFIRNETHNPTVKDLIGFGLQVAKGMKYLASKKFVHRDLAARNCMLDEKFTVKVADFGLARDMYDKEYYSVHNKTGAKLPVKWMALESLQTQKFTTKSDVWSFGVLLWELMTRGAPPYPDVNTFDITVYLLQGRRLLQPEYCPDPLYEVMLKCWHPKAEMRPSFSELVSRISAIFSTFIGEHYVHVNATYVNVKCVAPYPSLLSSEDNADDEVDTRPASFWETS

human cancer cell lines = test: Paclitaxel- and platinum-induced cytotoxicity; type: cell-based
Source text: Tavocept mediates the non-enzymatic xenobiotic modification of sulfur-containing amino acid residues (e.g., cysteine) on proteins. As an engineered, non-naturally occurring agent (i.e., xenobiotic), Tavocept is autocatalytic and requires no protein cofactor to cause the xenobiotic modification of cysteine, but appears to be specific for cysteine residues located within a particular structural context (i.e., not all cysteines in a protein are so modified). Tavocept-mediated, xenobiotic modification represents a novel mechanism of action for a cancer treating agent and can be compared to a degree with post-translational modifications of cysteine residues in proteins (see, Table 3, below).

## O=S(=O)([O-])CCSSCCS(=O)(=O)[O-].[Na+].[Na+] [Tavocept, disodium 2,2′-dithio-bis-ethane sulfonate]
[1]
  Inhibition of farnesylation: inhibits farnesylation in a concentration-dependent manner
TrxR/Trx system
  mode of action on Trx: alternative substrate inhibitor
TrxR/Trx system; increasing concentrations of test substance
  NADPH oxidation by TrxR and Trx: increases
[2]; 41 g/m^2 Tavocept
  Tavocept in plasma: ~14 mM
[2]; as high as
  concentrations of Tavocept achieved in the clinic: ≤ 18000 µM
[2]; doses of 18.4 g/m^2 and higher
  pharmacologically achievable plasma levels: ≥ 8 mM
[2]; in vivo
  Plasma concentrations achieved in clinical trials: 10000 µM
  pharmacologically achievable concentrations: 6-10 mM
[2]; read-out: Cmax values in plasma, dose of 18.4 g/m^2
  Cmax: ≥ 10000 µM and ~10000 µM
[2]; read-out: Cmax values in plasma, doses as high as 41 g/m^2, typical
  Cmax: ~10000 µM
[2]; read-out: typical Cmax values, administered at 18 g/m^2
  Cmax: ~10000 µM
Bovine TrxR; Reaction A
  Reduction by TrxR alone: did not detectably reduce
Bovine TrxR; TrxR alone + NADPH, no Trx, disulfide 0.5 mM
  NADPH Oxidation, Reaction A: 0.3 ± 0.01 nmol/min/mL
[3]
  Cellular consequence of BNP7787-modification and/or modulation: ALK: BNP7787 disrupts/blocks ATP binding site resulting in inhibition
FTase
  effect on FTase activity: Inhibition of FTase activity
[4]
  Prx 4 cysteine residues carrying Tavocept-derived mesna moiety: Cys124; also recorded: cysteine 124 (and possibly cysteine 245)
γ-Glutamyltranspeptidase
  Cellular consequence of BNP7787-modification and/or modulation: γ-glutamyltranspeptidase: can inhibit γ-glutamyltranspeptidase and aminopeptidase N enzyme
[5]
  Mesna adduct sites on Grx by X-ray: Cys7 and Cys82
[6]
  Cellular consequence of BNP7787-modification and/or modulation: MET: Modification of non-active site cysteine(s) resulting in enzyme
Human cancer cell lines
  interference with paclitaxel- and platinum-induced cytotoxicity: not to interfere
